What follows are compounds tested against T1, hMrgpMRGPRX2 (Homo sapiens, UniProt Q96LB1) (assay: FLIPR intracellular calcium mobilization, antagonist activity in recombinant hMrgpMRGPRX2 expressing cells). Conditions: read-out: Human MrgprX2 Antagonist pIC50 (converted).
T1 construct: expressed in transfected cells
T1 sequence (Q96LB1 1-330): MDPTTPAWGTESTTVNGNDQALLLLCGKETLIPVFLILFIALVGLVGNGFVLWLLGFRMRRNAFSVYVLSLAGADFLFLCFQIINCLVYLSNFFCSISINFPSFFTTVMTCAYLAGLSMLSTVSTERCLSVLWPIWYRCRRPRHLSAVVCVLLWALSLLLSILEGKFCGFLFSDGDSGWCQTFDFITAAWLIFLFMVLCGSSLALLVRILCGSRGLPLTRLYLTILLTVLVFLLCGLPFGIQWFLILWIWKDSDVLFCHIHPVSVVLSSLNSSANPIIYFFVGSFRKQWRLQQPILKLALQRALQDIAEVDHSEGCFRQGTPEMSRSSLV
Format: cell-based
How it was run: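 Antagonist activity was read as inhibition of intracellular calcium mobilization (FLIPR) in recombinant cells expressing human MrgprX2. Potency was also checked in LAD-2 human mast cells with endogenous receptor, and orthologue activity in cells expressing mouse MrgprB2, mouse MrgprA1, and gerbil, Chinese hamster and cynomolgus orthologues.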

| Structure (SMILES) | IC50 [nM] |
| --- | --- |
| CCN(C[C@@H](O)C(F)(F)F)C(=O)Nc1cc(Oc2cccc(F)c2)ccn1 [Compound E154] | 1.29 |
| CC1(C)CC1C(=O)Nc1ccc(N2CCCC2)cn1 (stereo not drawn) [Compound E098] | 87.1 |
| CCN(C[C@@H](O)C(F)(F)F)C(=O)Nc1ccc(Oc2cccc(F)c2)cn1 [Compound E119] | 12.3 |
| CC1(C)C(C(=O)Nc2ccc(CN3CCCC3)cn2)C1(C)C [Compound E270, 2,2,3,3-tetramethyl-N-[5-(pyrrolidin-1-ylmethyl)-2-pyridyl]cyclopropanecarboxamide] | 5250 |
| CC(O)CN(CC(F)(F)F)C(=O)Nc1ccc(Oc2ccc(F)c(F)c2)cn1 (stereo not drawn) [Compound E114] | 1200 |
| CC(C)C(=O)Nc1ccc(N(C)c2ccccc2)cn1 [Compound E096, 2-methyl-N-[5-(N-methylanilino)-2-pyridyl]propanamide] | 2510 |
| CC1(C)C(C(=O)Nc2ccc(F)cn2)C1(C)C [Compound E211] | 1.26 |
| CC1(C)C(C(=O)Nc2ccc(-c3ncco3)cn2)C1(C)C [Compound E198, 2,2,3,3-tetramethyl-N-(5-oxazol-2-yl-2-pyridyl)cyclopropanecarboxamide] | 33.9 |
| CC1(C)CC1C(=O)Nc1ccc(Oc2ccc(C#N)cc2)cn1 (stereo not drawn) [Compound E057] | 1260 |
| CC1(C)CCC1C(=O)Nc1ccc(Oc2ccc(F)c(F)c2)cn1 (stereo not drawn) [Compound E062] | 10 |
| CC1(C)CC1C(=O)Nc1ccc(Oc2ccnc(F)c2)cn1 (stereo not drawn) [Compound E072] | 1910 |
| CC1(C)C(C(=O)Nc2ccc(-n3cccn3)cn2)C1(C)C [Compound E199, 2,2,3,3-tetramethyl-N-(5-pyrazol-1-yl-2-pyridyl)cyclopropanecarboxamide] | 33.9 |
| CC1(C)C(C(=O)Nc2ccc(OCCO)cn2)C1(C)C [Compound E082, N[5-(2-hydroxyethoxy)pyridin-2-yl]-2,2,3,3-tetramethylcyclopropane-l-carboxamide] | 4370 |
| O=C(Nc1ccc(Oc2cc(F)cc(F)c2)cn1)C1CC1 [Compound E017] | 79.4 |
| CC1(C)C(C(=O)Nc2cc(C(F)(F)F)ccn2)C1(C)C [Compound E203] | 1580 |
| CC(C)C(=O)Nc1ccc(Oc2cc(F)cc(C#N)c2)cn1 [Compound E021] | 1580 |
| CC1(C)C(C(=O)Nc2ccc(-c3cn[nH]c3)cn2)C1(C)C [Compound E175] | 2510 |
| CCN(C[C@@H](O)C(F)(F)F)C(=O)Nc1ccc(Oc2cc(C#N)ccc2F)cn1 [Compound E126] | 7760 |
| CC1(C)C(C(=O)Nc2ccc(Oc3cc(F)cc(C#N)c3)cn2)C1(C)C [Compound E042] | 3.16 |
| CCN(CC(O)C(F)(F)F)C(=O)Nc1ccc(Oc2cccc(F)c2)cn1 (stereo not drawn) [Compound E127] | 15.8 |
| O=C(Nc1ccc(Oc2cc(F)cc(F)c2)cn1)N1CC[C@@H](CO)C1 [Compound E130] | 7080 |
| CN(C(=O)Nc1ccc(Oc2ccc(F)c(F)c2)cn1)C1CC1 [Compound E108] | 631 |

| Structure (SMILES) | IC50 [nM] |
| --- | --- |
| O=C(Nc1ccc(Oc2ccc(F)c(F)c2)cn1)C1CC1 [Compound E034] | 200 |
| O=C(Nc1ccc(Oc2ccc(F)c(F)c2)cn1)C1CCCC1 [Compound E031] | 63.1 |
| CC(C)C(=O)Nc1ccc(Oc2cccc(C#N)c2)cn1 [Compound E018] | 6310 |
| CC(C)C(=O)Nc1ccc(-c2ccc(F)cc2)cn1 [Compound E165] | 1260 |
| C[C@@H]1C[C@H]1C(=O)Nc1ccc(Oc2ccc(F)c(F)c2)cn1 (racemic) [Compound E048.1] | 79.4 |
| CC1(C)C(C(=O)Nc2cnc(-c3cc(F)cc(F)c3)cn2)C1(C)C [Compound E227] | 33.9 |
| CC(C)C(=O)Nc1ccc(Oc2ccc(F)c(C#N)c2)cn1 [Compound E019] | 7940 |
| CNc1ccc(NC(=O)C2C(C)(C)C2(C)C)nc1 [Compound E079, 2,2,3,3-tetramethyl-N-[5-(methylamino)-2-pyridyl]cyclopropanecarboxamide] | 1660 |
| CC1(C)C(C(=O)Nc2ccc(Oc3cccnc3)cn2)C1(C)C [Compound E066] | 30.9 |
| CC(C)(F)C(=O)Nc1ccc(Oc2ccc(F)c(F)c2)cn1 [Compound E035] | 398 |
| CC1(C)C(C(=O)Nc2cnc(Oc3cc(F)cc(F)c3)cn2)C1(C)C [Compound E220] | 1.58 |
| COc1cnc(NC(=O)C2C(C)(C)C2(C)C)cn1 [Compound E215] | 200 |
| CCN(C[C@@H](O)C(F)(F)F)C(=O)Nc1ccc(Oc2cc(F)ccc2F)cn1 [Compound E123] | 3.39 |
| CC1(C)C(C(=O)Nc2ccc(C3CCOC3)cn2)C1(C)C (stereo not drawn) [Compound E186] | 186 |
| O=C(Nc1ccc(Oc2ccc(F)c(F)c2)cn1)C1CC1(F)F (stereo not drawn) [Compound E028] | 200 |
| CC(C)C(=O)Nc1ccc(N2CCc3ccccc32)cn1 [Compound E095, N-(5-indolin-1-yl-2-pyridyl)-2-methyl-propanamide] | 3980 |
| Cn1cc(-c2ccc(NC(=O)C3C(C)(C)C3(C)C)nc2)cn1 [Compound E185] | 93.3 |
| O=C(Nc1cc(Oc2cc(F)cc(F)c2)ccn1)C1CC1 [Compound E144, N-[4-(3,5-difluorophenoxy)-2-pyridyl]cyclopropanecarboxamide] | 1000 |
| CC1(C)C(C(=O)Nc2ccc(Oc3ccc(C(N)=O)nc3)cn2)C1(C)C [Compound E076] | 1260 |
| CC1(C(=O)Nc2ccc(Oc3ccc(F)c(F)c3)cn2)CC1 [Compound E032] | 200 |
| CC1(C)C(C(=O)Nc2cc(OCC(F)(F)F)ccn2)C1(C)C [Compound E149, 2,2,3,3-tetramethyl-N-[4-(2,2,2-trifluoroethoxy)-2-pyridyl]cyclopropanecarboxamide] | 2000 |
| CCN(C[C@@H](O)C(F)(F)F)C(=O)Nc1ccc(Oc2c(F)cccc2C#N)cn1 [Compound E136] | 158 |

Results, then the compound that gave them:

| IC50 [nM] | Structure (SMILES) |
| --- | --- |
| 24.5 | CCN(C[C@@H](O)C(F)(F)F)C(=O)Nc1cnc(Oc2ccc(C)cc2F)cn1 [Compound E263] |
| 631 | CC(C)N(C)C(=O)Nc1cnc(Oc2cc(F)cc(F)c2)cn1 [Compound E234, 3-[5-(3,5-difluorophenoxy)pyrazin-2-yl]-1-isopropyl-1-methyl-urea] |
| 2630 | CN1CCC[C@@H]1C(=O)Nc1ccc(Oc2ccc(F)c(F)c2)cn1 [Compound E278, (2R)-N-[5-(3,4-difluorophenoxy)-2-pyridyl]-1-methyl-pyrrolidine-2-carboxamide] |
| 1780 | CC1(C)CC(=O)N(c2ccc(Oc3ccc(F)c(F)c3)cn2)C1 [Compound E284, 1-[5-(3,4-difluorophenoxy)-2-pyridyl]-4,4-dimethyl-pyrrolidin-2-one] |
| 81.3 | C[C@]1(C(=O)Nc2ccc(Oc3cc(F)ccc3F)cn2)CCCN1S(N)(=O)=O [Compound E281] |
| 25.1 | CC1(C)CC1C(=O)Nc1cnc(Oc2cc(F)cc(F)c2)cn1 (stereo not drawn) [Compound E219] |
| 3090 | CCN(C[C@@H](O)C(F)(F)F)C(=O)Nc1ccc(-c2ncco2)cn1 [Compound E197, 1-ethyl-3-(5-oxazol-2-yl-2-pyridyl)-1-[(2R)-3,3,3-trifluoro-2-hydroxy-propyl]urea] |
| 28.2 | CCN(C[C@@H](O)C(F)(F)F)C(=O)Nc1ccc(Oc2ccc(F)cc2F)cn1 (single isomer, unassigned) [Compound E267] |
| 31.6 | CC(C)C(=O)Nc1ccc(-c2cc(F)cc(F)c2)cn1 [Compound E173] |
| 316 | COc1cccc(-c2ccc(NC(=O)C(C)C)nc2)c1 [Compound E171] |
| 95.5 | CC1(C)CC1C(=O)Nc1cnc(-c2cc(F)cc(F)c2)cn1 (stereo not drawn) [Compound E228, N-[5-(3,5-difluorophenyl)pyrazin-2-yl]-2,2-dimethyl-cyclopropanecarboxamide] |
| 31.6 | CCN(C[C@@H](O)C(F)(F)F)C(=O)Nc1cnc(Oc2cc(F)cc(F)c2)cn1 [Compound E236] |
| 501 | CC(C)C(=O)Nc1ccc(Cc2cccc(F)c2)cn1 [Compound E276, N-[5-[(3-fluorophenyl)methyl]-2-pyridyl]-2-methyl-propanamide] |
| 102 | CC1(C)CC1C(=O)Nc1cnc(-c2cc(F)cc(F)c2)cn1 (single isomer, unassigned) [Compound E231, N-[5-(3,5-difluorophenyl)pyrazin-2-yl]-2,2-dimethyl-cyclopropanecarboxamide] |
| 6310 | CC(C)C(=O)Nc1ccc(Cc2ccccc2)cn1 [Compound E181] |
| 2510 | C[C@H](C(=O)Nc1ccccn1)c1ccccc1 [Compound E209] |
| 2000 | C[C@@H](C(=O)Nc1ccccn1)c1ccccc1 [Compound E210] |
| 257 | CC1(C)CCN(c2ccc(Oc3ccc(F)c(F)c3)cn2)C1=O [Compound E285, 1-[5-(3,4-difluorophenoxy)-2-pyridyl]-3,3-dimethyl-pyrrolidin-2-one] |
| 63.1 | CC1(C)CC1C(=O)Nc1cnc(Oc2ccc(F)c(F)c2)cn1 (stereo not drawn) [Compound E225] |
| 288 | CC1(C)CC1C(=O)Nc1cnc(-c2cc(F)cc(C#N)c2)cn1 (stereo not drawn) [Compound E230] |
| 6.61 | CCN(C[C@@H](O)C(F)(F)F)C(=O)Nc1cnc(Oc2cccc(F)c2F)cn1 [Compound E239] |
| 676 | CCN(C[C@@H](O)C(F)(F)F)C(=O)Nc1cnc(OCc2cccc(F)c2)cn1 [Compound E262] |

Reference: US20230027929A1, “MrgprX2 Antagonists and Uses Thereof” (Dermira, Inc., priority 2019, published 2023)
